Laboratory results from patent US12570642B2, “GLP-IR modulating compounds” (Gilead Sciences, Inc., priority 2021, dated 2026).

Each compound was assayed against GLP-1R (Homo sapiens, UniProt P43220) (assay: GLP-1R Activation - cAMP Assay). Conditions: cAMP increase in CHO cells stably expressing GLP-1R; each compound run on one of the two cAMP assays (Assay 1 or Assay 2, not specified).
Format: cell-based
Summary of the method: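 cAMP rise read by HTRF after 30 min agonist exposure (10-point titration, 37 °C) in HBSS/20 mM Hepes/0.1% BSA, following 1 h pre-incubation. Cells: stable GLP-1R CHO line, 1,000/well, seeded overnight. Sigmoidal fit of response vs log concentration gives EC50.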

Sequence of GLP-1R (P43220 24-463): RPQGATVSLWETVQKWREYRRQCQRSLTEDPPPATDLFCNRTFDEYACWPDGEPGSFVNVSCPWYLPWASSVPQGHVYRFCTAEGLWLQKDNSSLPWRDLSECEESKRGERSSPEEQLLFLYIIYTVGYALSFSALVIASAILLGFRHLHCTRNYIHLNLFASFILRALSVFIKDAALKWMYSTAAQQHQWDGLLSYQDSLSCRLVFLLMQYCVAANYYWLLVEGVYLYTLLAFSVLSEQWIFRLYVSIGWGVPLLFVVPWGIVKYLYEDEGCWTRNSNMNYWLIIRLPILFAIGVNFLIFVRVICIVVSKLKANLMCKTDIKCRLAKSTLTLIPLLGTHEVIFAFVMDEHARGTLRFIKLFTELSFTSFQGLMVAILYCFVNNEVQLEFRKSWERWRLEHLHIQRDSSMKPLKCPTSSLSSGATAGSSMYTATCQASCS

SMILES | EC50
COCCn1c(Cc2c(F)cc(-c3cccc(OCc4ccc(C#N)cc4)n3)c(F)c2F)nc2c(F)cc(C(=O)O)cc21 [Example 378, 2-(4-(6-((4-cyanobenzyl)oxy)pyridin-2-yl)-2,3,6-trifluorobenzyl)-4-fluoro-1-(2-methoxyethyl)-1H-benzo[d]imidazole-6-carboxylic acid] | 0.321 nM
CO[C@H](C)Cn1c(Cc2cc(F)c(-c3cccc(OCc4ccc(C#N)cc4)n3)cc2F)nc2c(F)cc(C(=O)O)cc21 [Example 381, (R)-2-(4-(6-((4-cyanobenzyl)oxy)pyridin-2-yl)-2,5-difluorobenzyl)-4-fluoro-1-(2-methoxypropyl)-1H-benzo[d]imidazole-6-carboxylic acid] | 0.267 nM
COCCn1c(Cc2cc(F)c(-c3cccc(OCc4ccc(C#N)cc4)n3)cc2F)nc2c(F)cc(C(=O)O)cc21 [Example 382, 2-(4-(6-((4-cyanobenzyl)oxy)pyridin-2-yl)-2,5-difluorobenzyl)-4-fluoro-1-(2-methoxyethyl)-1H-benzo[d]imidazole-6-carboxylic acid] | 0.604 nM
CC1(C)COCC1n1c(Cc2ccc(-c3cccc(OCc4ccc(C#N)cc4F)n3)cc2F)nc2ccc(C(=O)O)cc21 (stereo not shown) [Example 384, 2-(4-(6-((4-cyano-2-fluorobenzyl)oxy)pyridin-2-yl)-2-fluorobenzyl)-1-(4,4-dimethyltetrahydrofuran-3-yl)-1H-benzo[d]imidazole-6-carboxylic acid] | 0.205 nM
COCCn1c(Cc2cc(F)c(-c3cccc(OCc4ccc(Cl)cc4)n3)cc2F)nc2c(F)cc(C(=O)O)cc21 [Example 386, 2-(4-(6-((4-chlorobenzyl)oxy)pyridin-2-yl)-2,5-difluorobenzyl)-4-fluoro-1-(2-methoxyethyl)-1H-benzo[d]imidazole-6-carboxylic acid] | 0.093 nM
CC1(C)COCC1n1c(Cc2cc(F)c(-c3cccc(OCc4ccc(Cl)cc4)n3)cc2F)nc2ccc(C(=O)O)cc21 (stereo not shown) [Example 387, 2-(4-(6-((4-chlorobenzyl)oxy)pyridin-2-yl)-2,5-difluorobenzyl)-1-(4,4-dimethyltetrahydrofuran-3-yl)-1H-benzo[d]imidazole-6-carboxylic acid] | 0.043 nM
CC1(C)COC[C@H]1n1c(Cc2cc(F)c(-c3ccc(F)c(OCc4cnc(-n5ccnn5)cc4Cl)c3)cc2F)nc2ccc(C(=O)O)cc21 [Example 388, (S)-2-((3′-((4-chloro-6-(1H-1,2,3-triazol-1-yl)pyridin-3-yl)methoxy)-2,4′,5-trifluoro-[1,1′-biphenyl]-4-yl)methyl)-1-(4,4-dimethyltetrahydrofuran-3-yl)-1H-benzo[d]imidazole-6-carboxylic acid] | 0.053 nM
COCCn1c(Cc2cc(F)c(-c3ccnc(OCc4cnc(-n5ccnn5)cc4Cl)n3)cc2F)nc2ccc(C(=O)O)cc21 [Example 389, 2-(4-(2-((4-chloro-6-(1H-1,2,3-triazol-1-yl)pyridin-3-yl)methoxy)pyrimidin-4-yl)-2,5-difluorobenzyl)-1-(2-methoxyethyl)-1H-benzo[d]imidazole-6-carboxylic acid] | 0.55 nM
COCCn1c(Cc2cc(F)c(-c3ccc(F)c(OCc4cnc(-n5ccnn5)cc4Cl)c3)cc2F)nc2ccc(C(=O)O)cc21 [Example 390, 2-((3′-((4-chloro-6-(1H-1,2,3-triazol-1-yl)pyridin-3-yl)methoxy)-2,4′,5-trifluoro-[1,1′-biphenyl]-4-yl)methyl)-1-(2-methoxyethyl)-1H-benzo[d]imidazole-6-carboxylic acid] | 3.12 nM
COCCn1c(Cc2c(F)cc(-c3cccc(OCc4cnc(-n5ccnn5)cc4Cl)n3)c(F)c2F)nc2ccc(C(=O)O)cc21 [Example 391, 2-(4-(6-((4-chloro-6-(1H-1,2,3-triazol-1-yl)pyridin-3-yl)methoxy)pyridin-2-yl)-2,3,6-trifluorobenzyl)-1-(2-methoxyethyl)-1H-benzo[d]imidazole-6-carboxylic acid] | 0.107 nM
COCCn1c(Cc2c(F)cc(-c3ccc(F)c(OCc4cnc(-n5ccnn5)cc4Cl)n3)c(F)c2F)nc2ccc(C(=O)O)cc21 [Example 392, 2-(4-(6-((4-chloro-6-(1H-1,2,3-triazol-1-yl)pyridin-3-yl)methoxy)-5-fluoropyridin-2-yl)-2,3,6-trifluorobenzyl)-1-(2-methoxyethyl)-1H-benzo[d]imidazole-6-carboxylic acid] | 0.036 nM
CC1(C)COC[C@H]1n1c(Cc2cc(F)c(-c3cccc(OCc4ccc(Cl)c(Cl)c4)n3)cc2F)nc2ccc(C(=O)O)cc21 [Example 393, (S)-2-(4-(6-((3,4-dichlorobenzyl)oxy)pyridin-2-yl)-2,5-difluorobenzyl)-1-(4,4-dimethyltetrahydrofuran-3-yl)-1H-benzo[d]imidazole-6-carboxylic acid] | 0.652 nM
CC1(C)COC[C@H]1n1c(Cc2cc(F)c(-c3cccc(OCc4ccc(Cl)c(F)c4)n3)cc2F)nc2ccc(C(=O)O)cc21 [Example 394, (S)-2-(4-(6-((4-chloro-3-fluorobenzyl)oxy)pyridin-2-yl)-2,5-difluorobenzyl)-1-(4,4-dimethyltetrahydrofuran-3-yl)-1H-benzo[d]imidazole-6-carboxylic acid] | 0.243 nM
CC1(C)COC[C@H]1n1c(Cc2cc(F)c(-c3ccc(F)c(OCc4ccc(C#N)cc4)n3)cc2F)nc2ccc(C(=O)O)nc21 [Example 396, (S)-2-(4-(6-((4-cyanobenzyl)oxy)-5-fluoropyridin-2-yl)-2,5-difluorobenzyl)-3-(4,4-dimethyltetrahydrofuran-3-yl)-3H-imidazo[4,5-b]pyridine-5-carboxylic acid] | 0.157 nM
CC1(C)COC[C@H]1n1c(Cc2cc(F)c(-c3cccc(OCc4ccc(C#N)cc4)n3)cc2F)nc2cc(Cl)c(C(=O)O)cc21 [Example 397, (S)-5-chloro-2-(4-(6-((4-cyanobenzyl)oxy)pyridin-2-yl)-2,5-difluorobenzyl)-1-(4,4-dimethyltetrahydrofuran-3-yl)-1H-benzo[d]imidazole-6-carboxylic Acid] | 0.546 nM
CC1(C)COC[C@H]1n1c(Cc2cc(F)c(-c3ccc(F)c(OCc4ccc(Cl)cc4Cl)n3)cc2F)nc2ccc(C(=O)O)cc21 [Example 398, (S)-2-(4-(6-((2,4-dichlorobenzyl)oxy)-5-fluoropyridin-2-yl)-2,5-difluorobenzyl)-1-(4,4-dimethyltetrahydrofuran-3-yl)-1H-benzo[d]imidazole-6-carboxylic acid] | 0.217 nM
CC1(C)COC[C@H]1n1c(Cc2cc(F)c(-c3cccc(OCc4ccc(Cl)cc4Cl)n3)cc2F)nc2ccc(C(=O)O)cc21 [Example 399, (S)-2-(4-(6-((2,4-dichlorobenzyl)oxy)pyridin-2-yl)-2,5-difluorobenzyl)-1-(4,4-dimethyltetrahydrofuran-3-yl)-1H-benzo[d]imidazole-6-carboxylic acid] | 0.124 nM
CC1(C)COC[C@H]1n1c(Cc2cc(F)c(-c3cccc(OCc4ccc(Cl)cc4F)n3)cc2F)nc2cc(O)c(C(=O)O)cc21 [Example 400, (S)-2-(4-(6-((4-chloro-2-fluorobenzyl)oxy)pyridin-2-yl)-2,5-difluorobenzyl)-1-(4,4-dimethyltetrahydrofuran-3-yl)-5-hydroxy-1H-benzo[d]imidazole-6-carboxylic acid] | 0.44 nM
CC1(C)COC[C@H]1n1c(Cc2cc(F)c(-c3cccc(OCc4ccc(C#N)cc4)n3)cc2F)nc2cc(O)c(C(=O)O)cc21 [Example 401, (S)-2-(4-(6-((4-cyanobenzyl)oxy)pyridin-2-yl)-2,5-difluorobenzyl)-1-(4,4-dimethyltetrahydrofuran-3-yl)-5-hydroxy-1H-benzo[d]imidazole-6-carboxylic acid] | 0.247 nM
CC1(C)COC[C@H]1n1c(Cc2cc(F)c(-c3cccc(OCc4ccc(Cl)cc4F)n3)cc2F)nc2cc(Cl)c(C(=O)O)cc21 [Example 402, (S)-5-chloro-2-(4-(6-((4-chloro-2-fluorobenzyl)oxy)pyridin-2-yl)-2,5-difluorobenzyl)-1-(4,4-dimethyltetrahydrofuran-3-yl)-1H-benzo[d]imidazole-6-carboxylic acid] | 0.561 nM
COCCn1c(Cc2c(F)cc(-c3cccc(OCc4ccc(-n5ccnn5)cc4Cl)n3)c(F)c2F)nc2ccc(C(=O)O)cc21 [Example 403, 2-(4-(6-((2-chloro-4-(1H-1,2,3-triazol-1-yl)benzyl)oxy)pyridin-2-yl)-2,3,6-trifluorobenzyl)-1-(2-methoxyethyl)-1H-benzo[d]imidazole-6-carboxylic acid] | 0.081 nM
CC1(C)COC[C@H]1n1c(Cc2cc(F)c(-c3ccnc(OCc4ccc(Cl)cc4Cl)n3)cc2F)nc2c(F)cc(C(=O)O)cc21 [Example 404, (S)-2-(4-(2-((2,4-dichlorobenzyl)oxy)pyrimidin-4-yl)-2,5-difluorobenzyl)-1-(4,4-dimethyltetrahydrofuran-3-yl)-4-fluoro-1H-benzo[d]imidazole-6-carboxylic acid] | 0.068 nM
CC1(C)COC[C@H]1n1c(Cc2cc(F)c(-c3nccc(OCc4ccc(Cl)cc4F)n3)cc2F)nc2ccc(C(=O)O)cc21 [Example 405, (S)-2-(4-(4-((4-chloro-2-fluorobenzyl)oxy)pyrimidin-2-yl)-2,5-difluorobenzyl)-1-(4,4-dimethyltetrahydrofuran-3-yl)-1H-benzo[d]imidazole-6-carboxylic acid] | 0.337 nM
O=C(O)c1ccc2nc(Cc3cc(F)c(-c4cccc(OCc5ccc(Cl)cc5F)n4)cc3F)n(C34COCC(C3)C4)c2c1 [Example 406, 1-(3-oxabicyclo[3.1.1]heptan-1-yl)-2-(4-(6-((4-chloro-2-fluorobenzyl)oxy)pyridin-2-yl)-2,5-difluorobenzyl)-1H-benzo[d]imidazole-6-carboxylic acid] | 10.8 nM
CC1(C)COC[C@H]1n1c(Cc2cc(F)c(-c3ncc(F)c(OCc4ccc(Cl)cc4F)n3)cc2F)nc2ccc(C(=O)O)cc21 [Example 410, (S)-2-(4-(4-((4-chloro-2-fluorobenzyl)oxy)-5-fluoropyrimidin-2-yl)-2,5-difluorobenzyl)-1-(4,4-dimethyltetrahydrofuran-3-yl)-1H-benzo[d]imidazole-6-carboxylic acid] | 0.349 nM
